# Results: article PMC6887723, “Design and Synthesis of 4-(Heterocyclic Substituted Amino)-1H-Pyrazole-3-Carboxamide Derivatives and Their Potent Activity against Acute Myeloid Leukemia (AML)” (International Journal of Molecular Sciences, 2019)
# Legend:
# [1] = tested on: human cell lines of NCI60; experiment: NCI60 screening, overall; format: cell-based; details: for most cell lines
# Description: (§1) With these findings, we submitted compound 8t to National Cancer Institute (NCI) to evaluate their antitumor efficacy against 60 human cancer cell lines.
# [2] = tested on: MCF7; experiment: NCI60 screening; format: cell-based; details: Homo sapiens, Breast Cancer panel
# Description: as §1
# [3] = tested on: COLO 205; experiment: NCI60 screening; format: cell-based; details: Homo sapiens, Colon Cancer panel
# Description: as §1
# [4] = tested on: OVCAR-4; experiment: NCI60 screening; format: cell-based; details: Homo sapiens, Ovarian Cancer panel
# Description: as §1
# [5] = tested on: SF-539; experiment: NCI60 screening; format: cell-based; details: Homo sapiens, CNS Cancer panel
# Description: as §1
# [6] = tested on: HOP-92; experiment: NCI60 screening; format: cell-based; details: Homo sapiens, Non-Small Cell Lung Cancer panel
# Description: as §1
# [7] = tested on: SK-MEL-2; experiment: NCI60 screening; format: cell-based; details: Homo sapiens, Melanoma panel
# Description: as §1
# [8] = tested on: SNB-19; experiment: NCI60 screening; format: cell-based; details: Homo sapiens, CNS Cancer panel
# Description: as §1
# [9] = tested on: M14; experiment: NCI60 screening; format: cell-based; details: Homo sapiens, Melanoma panel
# Description: as §1
# [10] = tested on: HCT-116; experiment: NCI60 screening; format: cell-based; details: Homo sapiens, Colon Cancer panel
# Description: as §1
# [11] = tested on: NCI-H460; experiment: NCI60 screening; format: cell-based; details: Homo sapiens, Non-Small Cell Lung Cancer panel
# Description: as §1
# [12] = tested on: 786-0; experiment: NCI60 screening; format: cell-based; details: Homo sapiens, Renal Cancer panel
# Description: as §1
# [13] = tested on: UACC-257; experiment: NCI60 screening; format: cell-based; details: Homo sapiens, Melanoma panel
# Description: as §1
# [14] = tested on: SNB-75; experiment: NCI60 screening; format: cell-based; details: Homo sapiens, CNS Cancer panel
# Description: as §1
# [15] = tested on: SF-268; experiment: NCI60 screening; format: cell-based; details: Homo sapiens, CNS Cancer panel
# Description: as §1
# [16] = tested on: U251; experiment: NCI60 screening; format: cell-based; details: Homo sapiens, U-251; CNS Cancer panel
# Description: as §1
# [17] = tested on: RXF 393; experiment: NCI60 screening; format: cell-based; details: Homo sapiens, Renal Cancer panel
# Description: as §1
# [18] = tested on: SR; experiment: NCI60 screening; format: cell-based; details: Homo sapiens, Leukemia panel
# Description: as §1
# [19] = tested on: HL-60(TB); experiment: NCI60 screening; format: cell-based; details: Homo sapiens, Leukemia panel
# Description: as §1
# [20] = tested on: SK-MEL-28; experiment: NCI60 screening; format: cell-based; details: Homo sapiens, Melanoma panel
# Description: as §1
# [21] = tested on: OVCAR-3; experiment: NCI60 screening; format: cell-based; details: Homo sapiens, Ovarian Cancer panel
# Description: as §1
# [22] = tested on: NCI-H322M; experiment: NCI60 screening; format: cell-based; details: Homo sapiens, Non-Small Cell Lung Cancer panel
# Description: as §1
# [23] = tested on: SF-295; experiment: NCI60 screening; format: cell-based; details: Homo sapiens, CNS Cancer panel
# Description: as §1
# [24] = tested on: OVCAR-8; experiment: NCI60 screening; format: cell-based; details: Homo sapiens, Ovarian Cancer panel
# Description: as §1
# [25] = tested on: NCI-H522; experiment: NCI60 screening; format: cell-based; details: Homo sapiens, Non-Small Cell Lung Cancer panel
# Description: as §1
# [26] = tested on: HCT-15; experiment: NCI60 screening; format: cell-based; details: Homo sapiens, Colon Cancer panel
# Description: as §1
# [27] = tested on: PC-3; experiment: NCI60 screening; format: cell-based; details: Homo sapiens, Prostate Cancer panel
# Description: as §1
# [28] = tested on: NCI-H23; experiment: NCI60 screening; format: cell-based; details: Homo sapiens, Non-Small Cell Lung Cancer panel
# Description: as §1
# [29] = tested on: NCI-H226; experiment: NCI60 screening; format: cell-based; details: Homo sapiens, Non-Small Cell Lung Cancer panel
# Description: as §1
# [30] = tested on: ACHN; experiment: NCI60 screening; format: cell-based; details: Homo sapiens, Renal Cancer panel
# Description: as §1
# [31] = tested on: T-47D; experiment: NCI60 screening; format: cell-based; details: Homo sapiens, T47D; Breast Cancer panel
# Description: as §1
# [32] = tested on: K-562; experiment: NCI60 screening; format: cell-based; details: Homo sapiens, K562; Leukemia panel
# Description: as §1
# [33] = tested on: MDA-MB-468; experiment: NCI60 screening; format: cell-based; details: Homo sapiens, Breast Cancer panel
# Description: as §1
# [34] = tested on: SW-620; experiment: NCI60 screening; format: cell-based; details: Homo sapiens, Colon Cancer panel
# Description: as §1
# [35] = tested on: A549/ATCC; experiment: NCI60 screening; format: cell-based; details: Homo sapiens, Non-Small Cell Lung Cancer panel
# Description: as §1
# [36] = tested on: RPMI-8226; experiment: NCI60 screening; format: cell-based; details: Homo sapiens, Leukemia panel
# Description: as §1
# [37] = tested on: HCC-2998; experiment: NCI60 screening; format: cell-based; details: Homo sapiens, Colon Cancer panel
# Description: as §1
# [38] = tested on: TK-10; experiment: NCI60 screening; format: cell-based; details: Homo sapiens, Renal Cancer panel
# Description: as §1
# [39] = tested on: SK-MEL-5; experiment: NCI60 screening; format: cell-based; details: Homo sapiens, Melanoma panel
# Description: as §1
# [40] = tested on: IGROV1; experiment: NCI60 screening; format: cell-based; details: Homo sapiens, IGROV-1; Ovarian Cancer panel
# Description: as §1
# [41] = tested on: MDA-MB-435; experiment: NCI60 screening; format: cell-based; details: Homo sapiens, Melanoma panel
# Description: as §1
# [42] = tested on: SN12C; experiment: NCI60 screening; format: cell-based; details: Homo sapiens, Renal Cancer panel
# Description: as §1
# [43] = tested on: SK-OV-3; experiment: NCI60 screening; format: cell-based; details: Homo sapiens, Ovarian Cancer panel
# Description: as §1
# [44] = tested on: LOX IMVI; experiment: NCI60 screening; format: cell-based; details: Homo sapiens, Melanoma panel
# Description: as §1
# [45] = tested on: CAKI-1; experiment: NCI60 screening; format: cell-based; details: Homo sapiens, Renal Cancer panel
# Description: as §1
# [46] = tested on: BT-549; experiment: NCI60 screening; format: cell-based; details: Homo sapiens, Breast Cancer panel
# Description: as §1
# [47] = tested on: KM12; experiment: NCI60 screening; format: cell-based; details: Homo sapiens, Colon Cancer panel
# Description: as §1
# [48] = tested on: EKVX; experiment: NCI60 screening; format: cell-based; details: Homo sapiens, Non-Small Cell Lung Cancer panel
# Description: as §1
# [49] = tested on: UO-31; experiment: NCI60 screening; format: cell-based; details: Homo sapiens, Renal Cancer panel
# Description: as §1
# [50] = tested on: DU-145; experiment: NCI60 screening; format: cell-based; details: Homo sapiens, Prostate Cancer panel
# Description: as §1
# [51] = tested on: HOP-62; experiment: NCI60 screening; format: cell-based; details: Homo sapiens, Non-Small Cell Lung Cancer panel
# Description: as §1
# [52] = tested on: UACC-62; experiment: NCI60 screening; format: cell-based; details: Homo sapiens, Melanoma panel
# Description: as §1
# [53] = tested on: NCI/ADR-RES; experiment: NCI60 screening; format: cell-based; details: Homo sapiens, Ovarian Cancer panel
# Description: as §1
# [54] = tested on: HT29; experiment: NCI60 screening; format: cell-based; details: Homo sapiens, HT-29; Colon Cancer panel
# Description: as §1
# [55] = tested on: MALME-3M; experiment: NCI60 screening; format: cell-based; details: Homo sapiens, Melanoma panel
# Description: as §1
compound,measurement,setting,value
O=C(Nc1ccc(N2CCNCC2)cc1)c1n[nH]cc1Nc1ncnc2sc3c(c12)CCC3 [Compound 8t],GI50,[1],< 1000 nM
same,melting point,,266 to 268 °C
same,GI50,[2],160 nM
same,GI50,[3],120 nM
same,GI50,[4],220 nM
same,GI50,[5],390 nM
same,GI50,[6],40 nM
same,GI50,[7],1160 nM
same,GI50,[8],240 nM
same,GI50,[9],120 nM
same,GI50,[10],110 nM
same,GI50,[11],60 nM
same,GI50,[12],360 nM
same,GI50,[13],480 nM
same,GI50,[14],50 nM
same,GI50,[15],720 nM
same,GI50,[16],110 nM
same,GI50,[17],390 nM
same,GI50,[18],60 nM
same,GI50,[19],1150 nM
same,GI50,[20],1130 nM
same,GI50,[21],230 nM
same,GI50,[22],140 nM
same,GI50,[23],270 nM
same,GI50,[24],360 nM
same,GI50,[25],210 nM
same,GI50,[26],220 nM
same,GI50,[27],180 nM
same,GI50,[28],260 nM
same,GI50,[29],320 nM
same,GI50,[30],160 nM
same,GI50,[31],590 nM
same,GI50,[32],120 nM
same,GI50,[33],420 nM
same,GI50,[34],120 nM
same,GI50,[35],140 nM
same,GI50,[36],890 nM
same,GI50,[37],1200 nM
same,GI50,[38],470 nM
same,GI50,[39],250 nM
same,GI50,[40],120 nM
same,GI50,[41],110 nM
same,GI50,[42],450 nM
same,GI50,[43],260 nM
same,GI50,[44],200 nM
same,GI50,[45],80 nM
same,GI50,[46],1020 nM
same,GI50,[47],170 nM
same,GI50,[48],60 nM
same,GI50,[49],400 nM
same,GI50,[50],300 nM
same,GI50,[51],370 nM
same,GI50,[52],1090 nM
same,GI50,[53],1480 nM
same,GI50,[54],260 nM
same,GI50,[55],240 nM
